Measured values: patent publication US8557527B2 (HistoRx, Inc., priority 2008, dated 2013)

Assays:
[1] = test system: Newly Diagnosed Glioblastoma (GBM); details: Gefitinib+Radiation vs historical controls; cited from earlier work
[2] = test system: GBM; assay: Clinical outcome of RT+Gefitinib (RTOG 0211, Array 19) versus RT alone (historical, Array 8) patients stratified by AQUA biomarker level
[3] = test system: chronic myelogenous leukemia and gastrointestinal stromal tumors; details: patients with chronic myelogenous leukemia and gastrointestinal stromal tumors; cited from earlier work

Compound	survival compared to historical controls [1]	overall survival, RTOG 0211 versus historical controls (RT alone) ([2]; patients with elevated ratio of cytoplasmic to nuclear pAKT)	overall survival times, Gefitinib+RT versus RT only ([2]; patients with intermediate-to-high levels of Src expression)	clinical outcome, RT+Gefitinib versus RT alone ([2]; patients with lower levels of PTEN expression, p=0.08)	efficacy as therapy [3]	toxicity as therapy [3]
COc1cc2ncnc(Nc3ccc(F)c(Cl)c3)c2cc1OCCCN1CCOCC1 [Gefitinib]	survival was not significantly improved	improved overall survival	significantly worse overall survival times	trend towards improved outcome	–	–
Cc1ccc(NC(=O)c2ccc(CN3CCN(C)CC3)cc2)cc1Nc1nccc(-c2cccnc2)n1 [STI-571]	–	–	–	–	highly effective	non-toxic
